Tests used:
[1] = tested on: Citrobacter rodentium; assay: Bacterial survival assay (3 h), CFU counts; type: cell-based; details: 50 μM, compared with N. meningitidis and N. gonorrhoeae
Protocol: (§1) Bacterial Survival Assay (3 h)
(§2) To measure bacterial survival (FIGS. 2 and 4), different bacteria were exposed to various concentrations of the compounds (as indicated) in their specific growth media (see the culture conditions above) for 3 h at 37° C. To perform this assay, all strains were grown overnight in their corresponding agar media. Cell-suspension corresponding to an OD600=0.05 were subsequently prepared. In parallel, fresh stock DMSO solutions of the compounds were prepared (100×, with final concentrations being indicated in the different figures) and 1.8 μL of the corresponding solutions were added per well of 96-well plates. In each well, 178.2 μL of bacterial suspension were subsequently added. Bacteria were allowed to grow during […] at 37° C. with 5% CO2. After incubation, serial dilutions (until 10^−6) were performed and 50 μL of each diluted solution were spread on agar plates. After an overnight incubation at 37° C. with/without 5% CO2, CFU were enumerated. All these assays were performed at least in triplicates.
(§3) To verify if the toxicity of BPh4^− is specific to the Neisseria genus, the percentage of survival of several Neisseria species was assessed after treatment with 50 μM of NaBPh4^− for 3 h (FIG. 4A). […] Other Gram-negative species such as Yersinia enterocolitica and Citrobacter rodentium (order Enterobacterales) or Moraxella catarrhalis (order Pseudomonadeles), but also Gram-positive species such as Staphylococcus aureus and Actinobacteria with M. smegmatis, were also tested.

[2] = tested on: Moraxella catarrhalis; assay: Bacterial survival assay (3 h), CFU counts; type: cell-based; details: 50 μM, compared with N. meningitidis and N. gonorrhoeae
Protocol: as §1, §2, §3

[3] = tested on: Yersinia enterocolitica; assay: Bacterial survival assay (3 h), CFU counts; type: cell-based; details: 50 μM, compared with N. meningitidis and N. gonorrhoeae
Protocol: as §1, §2, §3

[4] = tested on: Staphylococcus aureus; assay: Bacterial survival assay (3 h), CFU counts; type: cell-based; details: 50 μM, compared with N. meningitidis and N. gonorrhoeae
Protocol: as §1, §2, §3

[5] = tested on: M. smegmatis; assay: Bacterial survival assay (3 h), CFU counts; type: cell-based; details: 50 μM, compared with N. meningitidis and N. gonorrhoeae
Protocol: as §1, §2, §3

[6] = tested on: N. meningitidis (strain LNP 24198, luminescent); assay: Mice infection with luminescent N. meningitidis; type: in vivo, Balb/c mice; details: IV or IP administration 2 h after infection, 24 h and 48 h post-infection, relative to vehicle (DMSO)
Protocol: (§4) The strain LNP 24198 of Neisseria meningitidis expressing the luxCDABE gene under the control of the porBp promoter was used. Three groups, with five seven-week-old Balb/c mice each, were infected with luminescent Neisseria meningitidis. For this, 200 μL of bacterial cultures at OD600nm of 0.1 (5×10^7 cells/mL) mixed with 150 μL of human transferrin (20 mg/mL) was injected in each mouse. Two hours later, one group was treated with 100 μL of NaBPh4 (20 μM) injected into the tail veins by intravenous injection (IV), and one group was treated with the same dose injected by intraperitoneal injection (IP). The remaining five were treated with 100 μL of DMSO as controls. NaBPh4 was initially prepared at 20 mM in DMSO before being diluted into PBS to reach a final concentration of 20 μM (with 0.1% DMSO). DMSO was diluted in PBS in the same manner to achieve 1:1000. To test a possible toxicity of NaBPh4, one group of 5 non-infected mice was treated with 100 μL of DMSO (IP) and two groups with 100 μL NaBPh4 (IV or IP). Luminescence was then measured, on the front and back of the mice, at different time points (0, 4, 8, 24 and 48 hours post-infection). The light signal was determined for each mouse using the ROI (Region Of Interest) tool of the IVIS Lumina Ill.
(§5) The effect of NaBPh4 administration in a murine model of N. meningitidis infection was assessed.

[7] = tested on: N. elongata; assay: Bacterial survival assay (3 h), CFU counts; type: cell-based, Neisseria elongata
Protocol: as §1, §2
(§6) To verify if the toxicity of BPh4^− is specific to the Neisseria genus, the percentage of survival of several Neisseria species was assessed after treatment with 50 μM of NaBPh4^− for 3 h (FIG. 4A). […]

[8] = tested on: N. sicca; assay: Bacterial survival assay (3 h), CFU counts; type: cell-based, Neisseria sicca; details: 50 μM, compared with N. meningitidis and N. gonorrhoeae
Protocol: as §1, §2, §6

[9] = tested on: N. lactamica; assay: Bacterial survival assay (3 h), CFU counts; type: cell-based, Neisseria lactamica
Protocol: as §1, §2, §6

[10] = tested on: N. meninigitidis (LNP24198) expressing luciferase (LuxABCDE); assay: N. meningitidis luminescent strain growth assay (16 h); type: cell-based, Neisseria meningitidis
Protocol: N. meningitidis Luminescent Strain Growth Assay (16 h)
To perform the library screening (FIG. 1) or to compare the activity of the different boron-containing salts (FIG. 3), the amount of light produced after 16 h of growth for N. meningitidis luminescent strain was measured. Contrarily to optical density (OD) readings which can be misleading due to the absorbance of dead cells, this measurement is directly correlated to the number of live cells, as the half-life of the luciferase and its substrate are limited and that the emission of light is therefore not subsisting after the death of the cells. To perform this assay, N. meninigitidis (LNP24198) expressing luciferase (LuxABCDE) was grown overnight under the control of the constitutive promoter porBp in GCB agar media, and a cell-suspension corresponding to an OD600=0.01 was subsequently prepared. In parallel, fresh stock DMSO solutions of the compounds were prepared (100×, with final concentrations being indicated in the different figures) and 1.8 μL of the corresponding solutions were added per well of 96-well plates. In each well, 178.2 μL of bacterial suspension were subsequently added. Bacteria were allowed to grow during 16 h at 37° C. with 5% CO2. The emitted light was measured using a 96-well plate luminometer (PerkinElmer Wallac 1420 Victor^3) and results are expressed in relative light unit (RLU). All these assays were performed at least in triplicates.
To screen molecules for their antibacterial activity, a luminescent system was used, as previously described for other bacteria. A clinical isolate of N. meninigitidis (LNP24198) expressing luciferase (LuxABCDE) under the control of the constitutive promoter porBp was used, as similarly described, located in the intergenic region next to NMB1732. More than 2400 compounds from different origins were screened to identify candidates with the ability to inhibit the growth of N. meningitidis after 16 h at 37° C. […] It is noteworthy that stock solutions for all tested compounds were prepared in DMSO and that the final DMSO concentration of the tested solutions was kept at 1%, a concentration which has proven not to affect the growth of N. meningitidis (FIG. 1A). […] An investigation of the effect of the BPh4^− moiety was then pursued.
To exclude any salt-specific effect, the effect of several BPh4^− and BF4^− salts on the growth of N. meningitidis luminescent strain was tested. The growth of N. meningitidis was measured after a 16 h-exposure to different concentrations of various BPh4^− and BF4^− salts. From this assay, the MIC (minimum inhibitory concentration, the lowest concentration that prevents visible bacterial growth, <800 RLU) was calculated. All BPh4 salts tested (sodium, ammonium and potassium) were all highly toxic for N. meningitidis.
Several borate compounds were prepared and their ability to inhibit N. meningitidis growth was assessed using the luminescent system described at Example 2.

[11] = Toxicity of NaBPh4 in mice; type: in vivo, Balb/c mice; details: mice treated with NaBPh4 (IV or IP)
Protocol: as §4, §5

[12] = tested on: N. gonorrhoeae (LNP16626); assay: Bacterial survival assay (3 h), CFU counts; type: cell-based, Neisseria gonorrhoeae
Protocol: as §1, §2
(§7) Therefore, the bactericidal activity was assessed for the 4 compounds harboring a BPh4^− identified from the initial screen described above (AnIII-7, AnIII-6, AnII-18, NaBPh4). N. meningitidis was treated with 50 μM of each compound and the % survival cells (compared with DMSO 1% control) was measured using serial dilutions and CFU counts. […] To verify if the bactericidal effect could be observed for the other pathogen of the Neisseria family, a clinical isolate of. N. gonorrhoeae (LNP16626 [3]) was also treated with 50 μM of the same compounds, respectively, using the same assay.
(§8) The MBC (minimum bactericidal concentration that kill >99.999%), the concentration necessary to completely abrogate bacterial survival after a 3 h exposure to NaBPh4, was next assessed.

[13] = tested on: N. meningitidis; assay: Bacterial survival assay (3 h), CFU counts; type: cell-based, Neisseria meningitidis
Protocol: as §1, §2, §7, §8

[14] = 50 μM, 3 h, compared with N. meningitidis and N. gonorrhoeae

Question: Which results are given for `[Na+].c1ccc([B-](c2ccccc2)(c2ccccc2)c2ccccc2)cc1` [Compound 1, Sodium tetraphenylborate]?
Answer: survival of Citrobacter rodentium [1]: significantly more resistant; survival of Moraxella catarrhalis [2]: significantly more resistant; survival of Yersinia enterocolitica [3]: significantly more resistant; survival of Staphylococcus aureus [4]: significantly more resistant; survival of M. smegmatis [5]: significantly more resistant; N. meningitidis bacterial load (luminescence) [6]: significantly reduces; survival of N. elongata [7, 14]: less sensitive; MBC (minimum bactericidal concentration that kill >99.999%) ([7]; N. elongata, 3 h exposure): higher than 200 μM; survival of N. sicca [8]: less sensitive; survival of N. lactamica [9, 14]: not as sensitive; MBC (minimum bactericidal concentration that kill >99.999%) ([9]; N. lactamica, 3 h exposure): higher than 200 μM; inhibition of the growth of N. meningitidis (library screening) ([10]; 100 μM, 16 h at 37° C., 1% DMSO): active; MIC ([10]; Neisseria meningitidis, 16 h): 15 µM; sign of toxicity in mice [11]: No apparent sign of toxicity; survival of N. gonorrhoeae ([12]; 50 μM, 3 h, CFU counts): no viable cells were detected; MBC (minimum bactericidal concentration that kill >99.999%) ([12]; N. gonorrhoeae, 3 h exposure): 7.5 µM; survival of N. meningitidis ([13]; 50 μM, 3 h, CFU counts vs DMSO 1% control): the detection of any live bacteria was not possible; MBC (minimum bactericidal concentration that kill >99.999%) ([13]; N. meningitidis, 3 h exposure): 18 µM
